Measured values: ChEMBL document CHEMBL1133346, “The synthesis and evaluation of 3-substituted-7-(alkylidene)cephalosporin sulfones as beta-lactamase inhibitors” (Bioorg Med Chem Lett, 2000)

Experiments:
Beta-lactamase TEM = Beta-lactamase TEM (Enterobacter cloacae, UniProt Q6W9J1); assay: Inhibition of class A TEM-1 beta-lactamase derived from Enterobacter cloacae
Beta-lactamase = Beta-lactamase (Staphylococcus aureus, UniProt P00807); assay: Inhibition of class A beta-lactamase derived from Staphylococcus aureus strain PC1
Beta-lactamase class C [1] = target: T1, Beta-lactamase class C (Enterobacter cloacae, UniProt Q59401); assay: Inhibition of GC1 extended spectrum class C beta-lactamase; design: species or system Enterobacter cloacae GC1
Beta-lactamase class C [2] = target: T1, Beta-lactamase class C; assay: Inhibition of class C beta-lactamase derived from Enterobacter cloacae P99
Beta-lactamase class C [3] = target: T1, Beta-lactamase class C; assay: The compound was evaluated for inhibition against Class C beta-lactamase derived from Enterobacter cloacae P99
Beta-lactamase class C [4] = target: T1, Beta-lactamase class C; assay: The compound was evaluated for inhibition against the GC1 extended spectrum Class C beta-lactamase

Chain of Beta-lactamase (P00807 whole entry): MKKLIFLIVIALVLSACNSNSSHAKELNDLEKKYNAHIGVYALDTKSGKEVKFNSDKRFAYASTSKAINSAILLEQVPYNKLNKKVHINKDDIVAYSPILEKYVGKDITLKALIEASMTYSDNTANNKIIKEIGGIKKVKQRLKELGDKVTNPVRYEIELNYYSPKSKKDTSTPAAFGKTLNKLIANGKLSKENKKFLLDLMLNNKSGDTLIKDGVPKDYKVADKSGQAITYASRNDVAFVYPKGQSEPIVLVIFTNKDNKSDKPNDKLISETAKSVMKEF
Chain of Beta-lactamase TEM (Q6W9J1 whole entry): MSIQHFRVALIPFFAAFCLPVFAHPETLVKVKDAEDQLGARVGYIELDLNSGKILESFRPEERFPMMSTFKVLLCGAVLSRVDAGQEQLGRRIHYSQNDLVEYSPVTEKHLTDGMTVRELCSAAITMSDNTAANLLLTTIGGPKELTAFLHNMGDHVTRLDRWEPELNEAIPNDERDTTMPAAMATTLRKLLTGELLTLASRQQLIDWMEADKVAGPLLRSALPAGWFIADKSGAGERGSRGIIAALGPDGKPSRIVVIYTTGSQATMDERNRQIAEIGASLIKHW
T1 sequence (Q59401 whole entry): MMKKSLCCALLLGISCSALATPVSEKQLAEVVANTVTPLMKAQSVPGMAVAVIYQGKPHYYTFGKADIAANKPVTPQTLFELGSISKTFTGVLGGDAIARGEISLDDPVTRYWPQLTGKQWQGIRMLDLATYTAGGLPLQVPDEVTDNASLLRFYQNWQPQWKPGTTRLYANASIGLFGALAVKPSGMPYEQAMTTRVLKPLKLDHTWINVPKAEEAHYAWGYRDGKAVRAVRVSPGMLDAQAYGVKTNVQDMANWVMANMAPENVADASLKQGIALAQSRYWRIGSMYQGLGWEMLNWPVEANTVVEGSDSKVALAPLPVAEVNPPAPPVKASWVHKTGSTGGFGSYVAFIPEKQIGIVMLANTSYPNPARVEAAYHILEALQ

`O=C(O)C1=C(/C=C/c2cccc[n+]2[O-])CS(=O)(=O)[C@@H]2/C(=C\c3ccccn3)C(=O)N12` was tested, and the IC50 (Beta-lactamase TEM) was 6 nM, the IC50 (Beta-lactamase) was 8600 nM and the IC50 (Beta-lactamase class C [1]) was 100 nM. It also gave an IC50 (Beta-lactamase class C [2]) of 600 nM.
With `COC(=O)/C(Cl)=C/C1=C(C(=O)O)N2C(=O)/C(=C/c3ccccn3)C2S(=O)(=O)C1` (stereo unspecified) the IC50 (Beta-lactamase TEM) was 70 nM, the IC50 (Beta-lactamase) was 1400 nM and the IC50 (Beta-lactamase class C [1]) was 180 nM. The IC50 (Beta-lactamase class C [2]) was 900 nM.
`NC(=O)OCC1=C(C(=O)O)N2C(=O)/C(=C/c3ccccn3)C2S(=O)(=O)C1` (stereo unspecified) was tested, and the IC50 (Beta-lactamase TEM) was 10500 nM, the IC50 (Beta-lactamase) was 7900 nM and the IC50 (Beta-lactamase class C [1]) was 260 nM. It also gave an IC50 (Beta-lactamase class C [2]) of 2300 nM.
`COCC1=C(C(=O)O)N2C(=O)/C(=C/c3ccccn3)C2S(=O)(=O)C1` (stereo unspecified) showed an IC50 (Beta-lactamase TEM) of 700 nM, an IC50 (Beta-lactamase) of 28000 nM and an IC50 (Beta-lactamase class C [1]) of 1200 nM. The IC50 (Beta-lactamase class C [2]) was 700 nM.
In the case of `C=C1C(/C=C/C(=O)O)=C(C(=O)O)N2C(=O)/C(=C/c3ccccn3)C2S1(=O)=O` (stereo unspecified), the IC50 (Beta-lactamase TEM) is reported as 2500 nM and the IC50 (Beta-lactamase class C [2]) is reported as 6600 nM.
With `O=C(Cc1ccc(O)c(O)c1)OCC1=C(C(=O)O)N2C(=O)/C(=C/c3ccccn3)C2S(=O)(=O)C1` (stereo unspecified) the IC50 (Beta-lactamase TEM) was 17400 nM, the IC50 (Beta-lactamase) was 67000 nM and the IC50 (Beta-lactamase class C [2]) was 3600 nM.
`N#CC1=C(C(=O)O)N2C(=O)/C(=C/c3ccccn3)C2S(=O)(=O)C1` (stereo unspecified) showed an IC50 (Beta-lactamase TEM) of 2340 nM, an IC50 (Beta-lactamase) of 280000 nM and an IC50 (Beta-lactamase class C [2]) of 29 nM.
For `O=C(O)C1=C(/C=C/[N+](=O)[O-])CS(=O)(=O)C2/C(=C\c3ccccn3)C(=O)N12` (stereo unspecified), the IC50 (Beta-lactamase TEM) was 70 nM, the IC50 (Beta-lactamase) was 200 nM and the IC50 (Beta-lactamase class C [1]) was 100 nM. It also gave an IC50 (Beta-lactamase class C [2]) of 20 nM.
Compound `CCOC(=O)CNC(=O)OCC1=C(C(=O)O)N2C(=O)/C(=C/c3ccccn3)C2S(=O)(=O)C1` (stereo unspecified) has an IC50 (Beta-lactamase TEM) of 260000 nM, an IC50 (Beta-lactamase) of 33400 nM and an IC50 (Beta-lactamase class C [1]) of 45000 nM. The IC50 (Beta-lactamase class C [2]) was 400 nM.
Compound `C=C1C(/C=C/C(=O)OC)=C(C(=O)O)N2C(=O)/C(=C/c3ccccn3)C2S1(=O)=O` (stereo unspecified) has an IC50 (Beta-lactamase TEM) of 2900 nM, an IC50 (Beta-lactamase) of 6000 nM and an IC50 (Beta-lactamase class C [1]) of 60 nM. The IC50 (Beta-lactamase class C [2]) was 30 nM.
Compound `NC(=O)/C=C/C1=C(C(=O)O)N2C(=O)/C(=C/c3ccccn3)C2S(=O)(=O)C1` (stereo unspecified) has an IC50 (Beta-lactamase TEM) of 90 nM, an IC50 (Beta-lactamase) of 100 nM and an IC50 (Beta-lactamase class C [1]) of 10 nM. For the same compound, the IC50 (Beta-lactamase class C [2]) was 26 nM.
`NC(=O)/C=C/C1=C(C(=O)O)N2C(=O)/C(=C/c3cccs3)C2S(=O)(=O)C1` (stereo unspecified) gave an IC50 (Beta-lactamase TEM) of 900 nM, an IC50 (Beta-lactamase) of 154000 nM and an IC50 (Beta-lactamase class C [2]) of 290 nM.
In the case of `O=C(COc1ccccc1)OCC1=C(C(=O)O)N2C(=O)/C(=C/c3ccccn3)C2S(=O)(=O)C1` (stereo unspecified), the IC50 (Beta-lactamase TEM) is reported as 800 nM, the IC50 (Beta-lactamase) is reported as 100000 nM and the IC50 (Beta-lactamase class C [1]) is reported as 130 nM. For the same compound, the IC50 (Beta-lactamase class C [2]) was 100 nM.
With `N#C/C=C/C1=C(C(=O)O)N2C(=O)/C(=C/c3ccccn3)C2S(=O)(=O)C1` (stereo unspecified) the IC50 (Beta-lactamase TEM) was 14 nM, the IC50 (Beta-lactamase class C [3]) was 10 nM and the IC50 (Beta-lactamase) was 720 nM. The IC50 (Beta-lactamase class C [4]) was 12 nM.
In the case of `N#CCC1=C(C(=O)O)N2C(=O)/C(=C/c3ccccn3)C2S(=O)(=O)C1` (stereo unspecified), the IC50 (Beta-lactamase TEM) is reported as 5600 nM, the IC50 (Beta-lactamase) is reported as 8900 nM and the IC50 (Beta-lactamase class C [2]) is reported as 900 nM.
Work on `COC(=O)/C=C/C1=C(C(=O)O)N2C(=O)/C(=C/c3ccccn3)C2S(=O)(=O)C1` (stereo unspecified) yielded an IC50 (Beta-lactamase TEM) of 20 nM, an IC50 (Beta-lactamase) of 300 nM and an IC50 (Beta-lactamase class C [1]) of 300 nM. For the same compound, the IC50 (Beta-lactamase class C [2]) was 200 nM.
Compound `C=CC(=O)OCC1=C(C(=O)O)N2C(=O)/C(=C/c3ccccn3)C2S(=O)(=O)C1` (stereo unspecified) has an IC50 (Beta-lactamase) of 110000 nM, an IC50 (Beta-lactamase class C [1]) of 900 nM and an IC50 (Beta-lactamase class C [2]) of 100 nM.
With `O=C(O)/C=C/C1=C(C(=O)O)N2C(=O)/C(=C/c3ccccn3)C2S(=O)(=O)C1` (stereo unspecified) the IC50 (Beta-lactamase TEM) was 2500 nM, the IC50 (Beta-lactamase) was 31000 nM and the IC50 (Beta-lactamase class C [2]) was 310 nM.
`C=C1C(/C=C/C(=O)OC(C)(C)C)=C(C(=O)O)N2C(=O)/C(=C/c3ccccn3)C2S1(=O)=O` (stereo unspecified) gave an IC50 (Beta-lactamase class C [1]) of 150000 nM and an IC50 (Beta-lactamase class C [2]) of 440000 nM.
`C=C/C=C/C1=C(C(=O)O)N2C(=O)/C(=C/c3ccccn3)C2S(=O)(=O)C1` (stereo unspecified) was tested, and the IC50 (Beta-lactamase TEM) was 68000 nM, the IC50 (Beta-lactamase) was 75000 nM and the IC50 (Beta-lactamase class C [2]) was 24000 nM.
For `CC(C)(C)OC(=O)/C=C/C1=C(C(=O)O)N2C(=O)/C(=C/c3ccccn3)C2S(=O)(=O)C1` (stereo unspecified), the IC50 (Beta-lactamase) was 240000 nM and the IC50 (Beta-lactamase class C [2]) was 1480 nM.
Compound `O=C(O)C1=C(/C=C/c2ccccn2)CS(=O)(=O)[C@@H]2/C(=C\c3ccccn3)C(=O)N12` has an IC50 (Beta-lactamase TEM) of 200 nM, an IC50 (Beta-lactamase) of 4300 nM and an IC50 (Beta-lactamase class C [2]) of 180 nM.
Work on `CCC(=O)OCC1=C(C(=O)O)N2C(=O)/C(=C/c3ccccn3)C2S(=O)(=O)C1` (stereo unspecified) yielded an IC50 (Beta-lactamase TEM) of 311000 nM and an IC50 (Beta-lactamase) of 15400 nM.
